Biological target: BCL2 (Homo sapiens (Human), UniProt P10415)
Assay: Molecular level activity test of anti-apoptotic protein BCL2 (HTRF, binding to Bim peptide)
Conditions: HTRF, binding of BCL2 to Bim peptide; read-out: BCL2 nM (inhibitory activity, IC50)
Method in brief: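 Signal comes from proximity of anti-His-labelled BCL2 and streptavidin-XL665-bound biotin-BIM peptide. Test compounds, added in 2% DMSO, were preincubated with protein and peptide for one hour; detection reagents then incubated four hours at room temperature before reading.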

Sequence of BCL2 (P10415 whole entry): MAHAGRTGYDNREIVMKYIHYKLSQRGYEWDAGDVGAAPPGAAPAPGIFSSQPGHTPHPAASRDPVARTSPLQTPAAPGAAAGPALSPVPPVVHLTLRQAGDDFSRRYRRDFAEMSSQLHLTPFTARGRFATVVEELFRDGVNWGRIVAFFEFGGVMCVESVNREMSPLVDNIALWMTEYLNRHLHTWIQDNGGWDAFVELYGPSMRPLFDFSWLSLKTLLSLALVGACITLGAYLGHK

IC50, < 10 nM:
CC(C)c1ccccc1C1CN(C2CCOCC2)CCN1C1CC2(CCN(c3cc(Oc4cnc5[nH]cc(F)c5c4)c(C(=O)NS(=O)(=O)c4ccc(NC[C@H]5CC[C@](C)(O)CC5)c([N+](=O)[O-])c4)cn3)CC2)C1 (stereo partly drawn) [compound 059, 4-((3-fluoro-1H-pyrrolo[2,3-b]pyrid-5-yl)oxy)-N-((4-((((1r,4r)-4-hydroxy-4-methylcyclohexyl)methyl)amino)-3-nitrophenyl)sulfonyl)-6-(2-(2-(2-isopropylphenyl)-4-(tetrahydro-2H-pyran-4-yl)piperazin-1-yl)-7-azaspiro[3.5]non-7-yl) nicotinamide]
COc1ccc(CN2CCN(C3CC4(CCN(c5cc(Oc6cnc7[nH]cc(F)c7c6)c(C(=O)NS(=O)(=O)c6ccc(NC[C@H]7CC[C@](C)(O)CC7)c([N+](=O)[O-])c6)cc5F)CC4)C3)C(c3ccccc3C(C)C)C2)cc1 (stereo partly drawn) [compound 060, 5-fluoro-2-((3-fluoro-1H-pyrrolo[2,3-b]pyrid-5-yl)oxy)-N-((4-((((1r,4r)-4-hydroxy-4-methylcyclohexyl)methyl)amino)-3-nitrophenyl)sulfonyl)-4-(2-(2-(2-isopropylphenyl)-4-(4-methoxybenzyl)piperazin-1-yl)-7-azaspiro[3.5]non-7-yl)benzamide]
COc1ccc(CN2CCN(C3CC4(CCN(c5cc(Oc6cnc7[nH]cc(F)c7c6)c(C(=O)NS(=O)(=O)c6ccc(NCC7(F)CCN(C(C)C)CC7)c([N+](=O)[O-])c6)cn5)CC4)C3)C(c3ccccc3C(C)C)C2)cc1 (stereo not drawn) [compound 061, N-((4-(((4-fluoro-1-isopropylpiperid-4-yl)methyl)amino)-3-nitrophenyl)sulfonyl)-4-((3-fluoro-1H-pyrrolo[2,3-b]pyrid-5-yl)oxy)-6-(2-(2-(2-isopropylphenyl)-4-(4-methoxybenzyl)piperazin-1-yl)-7-azaspiro[3.5]non-7-yl) nicotinamide]
COc1ccc(CN2CCN(C3CC4(CCN(c5cc(Oc6cnc7[nH]ccc7c6)c(C(=O)NS(=O)(=O)c6ccc(NCC7CCOCC7)c([N+](=O)[O-])c6)cc5F)CC4)C3)C(c3ccccc3C(C)C)C2)cc1 (stereo not drawn) [compound 064, 2-((1H-pyrrolo[2,3-b]pyrid-5-yl)oxy)-5-fluoro-4-(2-(2-(2-isopropylphenyl)-4-(4-methoxybenzyl)piperazin-1-yl)-7-azaspiro[3.5]non-7-yl)-N-((3-nitro-4-(((tetrahydro-2H-pyran-4-yl)methyl)amino)phenyl)sulfonyl)benzamide]
COc1ccc(CN2CCN(C3CC4(CCN(c5cc(Oc6cnc7[nH]ccc7c6)c(C(=O)NS(=O)(=O)c6ccc(NCC7(F)CCOCC7)c([N+](=O)[O-])c6)cn5)CC4)C3)C(c3ccccc3C(C)C)C2)cc1 (stereo not drawn) [compound 065, 4-((1H-pyrrolo[2,3-b]pyrid-5-yl)oxy)-N-((4-(((4-fluorotetrahydro-2H-pyran-4-yl)methyl)amino)-3-nitrophenyl)sulfonyl)-6-(2-(2-(2-isopropylphenyl)-4-(4-methoxybenzyl)piperazin-1-yl)-7-azaspiro[3.5]non-7-yl) nicotinamide]
COc1ccc(CN2CCN(C3CC4(CCN(c5cc(Oc6cnc7[nH]ccc7c6)c(C(=O)NS(=O)(=O)c6cc([N+](=O)[O-])c(NC[C@H]7CC[C@](C)(O)CC7)c7[nH]cnc67)cn5)CC4)C3)C(c3ccccc3C(C)C)C2)cc1 (stereo partly drawn) [compound 067, 4-((1H-pyrrolo[2,3-b]pyrid-5-yl)oxy)-N-((7-((((1r,4r)-4-hydroxy-4-methylcyclohexyl)methyl)amino)-6-nitro-1H-benzo[d]imidazol-4-yl)sulfonyl)-6-(2-(2-(2-isopropylphenyl)-4-(4-methoxybenzyl)piperazin-1-yl)-7-azaspiro[3.5]non-7-yl) nicotinamide]
COc1ccc(CN2CCN(C3CC4(C3)CN(c3cc(Oc5cnc6[nH]ccc6c5)c(C(=O)NS(=O)(=O)c5cc([N+](=O)[O-])c(NC[C@H]6CC[C@](C)(O)CC6)c6[nH]cnc56)cn3)C4)C(c3ccccc3C(C)C)C2)cc1 (stereo partly drawn) [compound 068, 4-((1H-pyrrolo[2,3-b]pyrid-5-yl)oxy)-N-((7-((((1r,4r)-4-hydroxy-4-methylcyclohexyl)methyl)amino)-6-nitro-1H-benzo[d]imidazol-4-yl)sulfonyl)-6-(6-(2-(2-isopropylphenyl)-4-(4-methoxybenzyl)piperazin-1-yl)-2-azaspiro[3.3]hept-2-yl) nicotinamide]
COc1ccc(CN2CCN(C3CC4(CCN(c5cc(Oc6cnc7[nH]ccc7c6)c(C(=O)NS(=O)(=O)c6cc([N+](=O)[O-])c(NCC7(F)CCN(C(C)C)CC7)c7[nH]cnc67)cn5)CC4)C3)C(c3ccccc3C(C)C)C2)cc1 (stereo not drawn) [compound 069, 4-((1H-pyrrolo[2,3-b]pyrid-5-yl)oxy)-N-((7-(((4-fluoro-1-isopropylpiperid-4-yl)methyl)amino)-6-nitro-1H-benzo[d]imidazol-4-yl)sulfonyl)-6-(2-(2-(2-isopropylphenyl)-4-(4-methoxybenzyl)piperazin-1-yl)-7-azaspiro[3.5]non-7-yl) nicotinamide]
COc1ccc(CN2CCN(C3CC4(C3)CN(c3cc(Oc5cnc6[nH]ccc6c5)c(C(=O)NS(=O)(=O)c5cc([N+](=O)[O-])c(NCC6(F)CCN(C(C)C)CC6)c6[nH]cnc56)cn3)C4)C(c3ccccc3C(C)C)C2)cc1 (stereo not drawn) [compound 070, 4-((1H-pyrrolo[2,3-b]pyrid-5-yl)oxy)-N-((7-(((4-fluoro-1-isopropylpiperid-4-yl)methyl)amino)-6-nitro-1H-benzo[d]imidazol-4-yl)sulfonyl)-6-(6-(2-(2-isopropylphenyl)-4-(4-methoxybenzyl)piperazin-1-yl)-2-azaspiro[3.3]hept-2-yl) nicotinamide]
COc1ccc(CN2CCN(C3CC4(CCN(c5cc(Oc6cnc7[nH]ccc7c6)c(C(=O)NS(=O)(=O)c6cc([N+](=O)[O-])c(NC[C@H]7CC[C@](C)(O)CC7)c7[nH]cnc67)cc5F)CC4)C3)C(c3ccccc3C(C)C)C2)cc1 (stereo partly drawn) [compound 071, 2-((1H-pyrrolo[2,3-b]pyrid-5-yl)oxy)-5-fluoro-N-((7-((((1r,4r)-4-hydroxy-4-methylcyclohexyl)methyl)amino)-6-nitro-1H-benzo[d]imidazol-4-yl)sulfonyl)-4-(2-(2-(2-isopropylphenyl)-4-(4-methoxybenzyl)piperazin-1-yl)-7-azaspiro[3.5]non-7-yl)benzamide]
COc1ccc(CN2CCN(C3CC4(C3)CN(c3cc(Oc5cnc6[nH]ccc6c5)c(C(=O)NS(=O)(=O)c5cc([N+](=O)[O-])c(NC[C@H]6CC[C@](C)(O)CC6)c6[nH]cnc56)cc3F)C4)C(c3ccccc3C(C)C)C2)cc1 (stereo partly drawn) [compound 072, 2-((1H-pyrrolo[2,3-b]pyrid-5-yl)oxy)-5-fluoro-N-((7-((((1r,4r)-4-hydroxy-4-methylcyclohexyl)methyl)amino)-6-nitro-1H-benzo[d]imidazol-4-yl)sulfonyl)-4-(6-(2-(2-isopropylphenyl)-4-(4-methoxybenzyl)piperazin-1-yl)-2-azaspiro[3.3]hept-2-yl)benzamide]
COc1ccc(CN2CCN(C3CC4(CCN(c5cc(Oc6cnc7[nH]ccc7c6)c(C(=O)NS(=O)(=O)c6cc([N+](=O)[O-])c(NCC7(F)CCN(C(C)C)CC7)c7[nH]cnc67)cc5F)CC4)C3)C(c3ccccc3C(C)C)C2)cc1 (stereo not drawn) [compound 073, 2-((1H-pyrrolo[2,3-b]pyrid-5-yl)oxy)-5-fluoro-N-((7-(((4-fluoro-1-isopropylpiperid-4-yl)methyl)amino)-6-nitro-1H-benzo[d]imidazol-4-yl)sulfonyl)-4-(2-(2-(2-isopropylphenyl)-4-(4-methoxybenzyl)piperazin-1-yl)-7-azaspiro[3.5]non-7-yl)benzamide]
COc1ccc(CN2CCN(C3CC4(C3)CN(c3cc(Oc5cnc6[nH]ccc6c5)c(C(=O)NS(=O)(=O)c5cc([N+](=O)[O-])c(NCC6(F)CCN(C(C)C)CC6)c6[nH]cnc56)cc3F)C4)C(c3ccccc3C(C)C)C2)cc1 (stereo not drawn) [compound 074, 2-((1H-pyrrolo[2,3-b]pyrid-5-yl)oxy)-5-fluoro-N-((7-(((4-fluoro-1-isopropylpiperid-4-yl)methyl)amino)-6-nitro-1H-benzo[d]imidazol-4-yl)sulfonyl)-4-(6-(2-(2-isopropylphenyl)-4-(4-methoxybenzyl)piperazin-1-yl)-2-azaspiro[3.3]hept-2-yl)benzamide]
COc1ccc(CN2CCN(C3CC4(CCN(c5cc(Oc6cnc7[nH]ccc7c6)c(C(=O)NS(=O)(=O)c6cc([N+](=O)[O-])c(NCC7CCOCC7)c7[nH]cnc67)cn5)CC4)C3)C(c3ccccc3C(C)C)C2)cc1 (stereo not drawn) [compound 075, 4-((1H-pyrrolo[2,3-b]pyrid-5-yl)oxy)-6-(2-(2-(2-isopropylphenyl)-4-(4-methoxybenzyl)piperazin-1-yl)-7-azaspiro[3.5]non-7-yl)-N-((6-nitro-7-(((tetrahydro-2H-pyran-4-yl)methyl)amino)-1H benzo[d]imidazol-4-yl)sulfonyl) nicotinamide]
COc1ccc(CN2CCN(C3CC4(CCN(c5cc(Oc6cnc7[nH]ccc7c6)c(C(=O)NS(=O)(=O)c6cc([N+](=O)[O-])c(NCC7CCOCC7)c7[nH]cnc67)cc5F)CC4)C3)C(c3ccccc3C(C)C)C2)cc1 (stereo not drawn) [compound 076, 2-((1H-pyrrolo[2,3-b]pyrid-5-yl)oxy)-5-fluoro-4-(2-(2-(2-isopropylphenyl)-4-(4-methoxybenzyl)piperazin-1-yl)-7-azaspiro[3.5]non-7-yl)-N-((6-nitro-7-(((tetrahydro-2H-pyran-4-yl)methyl)amino)-1H-benzo[d]imidazol-4-yl)sulfonyl)benzamide]

Reference: patent US20250034135A1, “ANTI-APOPTOTIC PROTEIN BCL-2 INHIBITOR, PHARMACEUTICAL COMPOSITION AND USES THEREOF” (HANGZHOU HEALZEN THERAPEUTICS CO., LTD., priority 2021, published 2025)
